IC50 data for 24 molecules are collected here from patent US8710043B2, “TRPM8 antagonists and their use in treatments” (Amgen Inc., priority 2011, dated 2014).

By IC50 is commonly meant the concentration needed to halve the response being measured.

The target of this experiment is T1, human TRPM8 (Homo sapiens, UniProt Q7Z2W7).
T1 construct: expressed in transfected cells; host or cells: Chinese hamster ovary (CHO) cells, T-REx tetracycline-inducible system, co-transfected with aequorin
Description: Luminescence readout assay for measuring intracellular calcium, icilin activation. It is filed as cell-based. Conditions: CHO cells expressing human TRPM8, aequorin luminescence, 1 μM icilin activation; read-out: hTRPM8 IC50. In a few lines:
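The read-out was luminescence reporting intracellular calcium, recorded by a CCD-based luminometer. Compounds were preincubated for 2.5 min before agonist challenge with 1 μM icilin. Human TRPM8 was expressed in a stable T-REx CHO line, induced with 0.5 μg/mL tetracycline the day before.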
Background: Calcium assays in cells follow changes in intracellular calcium, usually with a dye or a luminescent sensor.

T1 sequence (Q7Z2W7 whole entry): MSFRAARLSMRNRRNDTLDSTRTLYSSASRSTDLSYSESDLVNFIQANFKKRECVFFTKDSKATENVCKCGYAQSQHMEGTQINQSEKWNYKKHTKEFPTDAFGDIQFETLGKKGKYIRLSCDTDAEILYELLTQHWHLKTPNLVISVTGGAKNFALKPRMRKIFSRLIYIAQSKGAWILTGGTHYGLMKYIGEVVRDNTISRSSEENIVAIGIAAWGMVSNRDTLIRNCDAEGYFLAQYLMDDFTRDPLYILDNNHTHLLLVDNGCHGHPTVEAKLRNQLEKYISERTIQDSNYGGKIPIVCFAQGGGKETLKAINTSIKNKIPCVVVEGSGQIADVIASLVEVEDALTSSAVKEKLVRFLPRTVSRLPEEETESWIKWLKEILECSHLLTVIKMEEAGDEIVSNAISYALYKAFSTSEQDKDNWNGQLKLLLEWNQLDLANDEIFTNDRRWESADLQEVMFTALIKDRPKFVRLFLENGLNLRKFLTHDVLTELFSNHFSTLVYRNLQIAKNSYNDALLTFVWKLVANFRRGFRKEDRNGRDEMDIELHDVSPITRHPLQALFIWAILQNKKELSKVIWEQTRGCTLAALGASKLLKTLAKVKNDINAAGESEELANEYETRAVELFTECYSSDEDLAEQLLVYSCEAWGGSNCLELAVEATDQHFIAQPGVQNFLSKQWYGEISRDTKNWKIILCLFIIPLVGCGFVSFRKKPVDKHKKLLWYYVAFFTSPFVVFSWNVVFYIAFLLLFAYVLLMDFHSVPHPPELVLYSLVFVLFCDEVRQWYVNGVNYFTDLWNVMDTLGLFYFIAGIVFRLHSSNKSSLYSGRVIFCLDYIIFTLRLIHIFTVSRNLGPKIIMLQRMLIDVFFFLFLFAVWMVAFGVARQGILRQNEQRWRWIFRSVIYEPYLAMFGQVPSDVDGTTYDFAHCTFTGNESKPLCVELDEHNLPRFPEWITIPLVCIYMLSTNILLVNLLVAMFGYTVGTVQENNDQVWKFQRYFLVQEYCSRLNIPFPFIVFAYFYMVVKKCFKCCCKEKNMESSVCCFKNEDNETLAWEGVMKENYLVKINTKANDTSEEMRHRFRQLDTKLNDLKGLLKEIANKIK

On to `COc1cccc2cc([C@H](NC(=O)c3ccc4cccnc4c3)c3ncccc3C(F)(F)F)cnc12` [Example 23, (S)-N-((8-methoxyquinolin-3-yl)(3-(trifluoromethyl)pyridin-2-yl)methyl)quinoline-7-carboxamide], for which the IC50 was 1060 nM.

Consider `O=C(N[C@@H](c1ccc(C(F)(F)F)cc1)c1ncccc1F)c1ccc(=O)n(C2COC2)c1` [Example 305, (S)-N-((3-fluoropyridin-2-yl)(4-(trifluoromethyl)phenyl)methyl)-1-(oxetan-3-yl)-6-oxo-1,6-dihydropyridine-3-carboxamide], for which the concentration for half-maximal inhibition (IC50) worked out at 29.6 nM.

Take `O=C(N[C@@H](c1ccc(C(F)(F)F)cc1)c1ncccc1F)c1ccn2ccnc2c1` [Example 86, (S)-N-((3-fluoropyridin-2-yl)(4-(trifluoromethyl)phenyl)methyl)imidazo[1,2-a]pyridine-7-carboxamide]: the half-maximal inhibitory concentration (IC50) amounted to 10.2 nM. Under `O=C(N[C@@H](c1ccc(C(F)(F)F)cc1)c1ncccc1C(F)(F)F)c1ccc(Br)cn1` [Example 205, (S)-5-bromo-N-((4-(trifluoromethyl)phenyl)(3-(trifluoromethyl)pyridin-2-yl)methyl)picolinamide] stands 140 nM. With `Cc1cc(F)cc([C@H](NC(=O)c2ccc(=O)n(C)c2)c2ncccc2F)c1` [Example 326, (S)-N-((3-fluoro-5-methylphenyl)(3-fluoropyridin-2-yl)methyl)-1-methyl-6-oxo-1,6-dihydropyridine-3-carboxamide], the half-maximal inhibitory concentration (IC50) amounted to 3210 nM. For `O=C(Cc1cccnc1)N[C@@H](c1ccc(OC(F)(F)F)c(F)c1)c1ncccc1F` [Example 289, (S)-N-((3-fluoro-4-(trifluoromethoxy)phenyl)(3-fluoropyridin-2-yl)methyl)-2-(pyridin-3-yl)acetamide], the IC50 amounted to 1610 nM. For `Cc1ccc([C@H](NC(=O)c2ccc(=O)n(C)c2)c2ncccc2F)cc1F` [Example 335, (S)-N-((3-fluoro-4-methylphenyl)(3-fluoropyridin-2-yl)methyl)-1-methyl-6-oxo-1,6-dihydropyridine-3-carboxamide], the IC50 came to 209 nM. As to `O=C(N[C@@H](c1ccc(C(F)(F)F)cc1)c1ncccc1C(F)(F)F)c1ccc2cc[nH]c2n1` [Example 67, (S)-N-((4-(trifluoromethyl)phenyl)(3-(trifluoromethyl)pyridin-2-yl)methyl)-1H-pyrrolo[2,3-b]pyridine-6-carboxamide], the IC50 is 40 nM.

Take `Cc1cc(C)cc([C@H](NC(=O)c2ccc(=O)[nH]c2)c2ncccc2F)c1` [Example 324, (S)-N-((3,5-dimethylphenyl)(3-fluoropyridin-2-yl)methyl)-6-oxo-1,6-dihydropyridine-3-carboxamide]: the IC50 amounted to 1050 nM. Under `O=C(N[C@@H](c1ccc(C(F)(F)F)c(F)c1)c1ncccc1C(F)(F)F)c1ccc2cccnc2n1` [Example 129, (S)-N-((3-fluoro-4-(trifluoromethyl)phenyl)(3-(trifluoromethyl)pyridin-2-yl)methyl)-1,8-naphthyridine-2-carboxamide 2,2,2-trifluoroacetate] stands 114 nM; under `O=C1Cc2ccc(C(=O)N[C@@H](c3ccc(C(F)(F)F)cc3)c3ncccc3C(F)(F)F)cc2N1` [Example 69, (S)-2-oxo-N-((4-(trifluoromethyl)phenyl)(3-(trifluoromethyl)pyridin-2-yl)methyl)indoline-6-carboxamide], 12.9 nM; under `O=C1CCc2cc(C(=O)N[C@@H](c3ccc(C(F)(F)F)cc3)c3ncccc3F)ccc2N1` [Example 318, (S)-N-((3-fluoropyridin-2-yl)(4-(trifluoromethyl)phenyl)methyl)-2-oxo-1,2,3,4-tetrahydroquinoline-6-carboxamide], 29.7 nM.

Regarding `CC1(C)C[C@H]1c1cccnc1[C@@H](NC(=O)c1ccc2ncccc2c1)c1ccc(C(F)(F)F)cc1` [Example 233, N-((S)-(3-((R)-2,2-dimethylcyclopropyl)pyridin-2-yl)(4-(trifluoromethyl)phenyl)methyl)quinoline-6-carboxamide], the IC50 is 83.1 nM. For `O=C(O)c1cccc(C(=O)N[C@@H](c2ccc(C(F)(F)F)cc2)c2ncccc2C(F)(F)F)c1` [Example 179, (S)-3-(((4-(trifluoromethyl)phenyl)(3-(trifluoromethyl)pyridin-2-yl)methyl)carbamoyl)benzoic acid], the IC50 was 39.8 nM.

Turning to `COc1ccccc1C(=O)N[C@@H](c1ccc(C(F)(F)F)cc1)c1ncccc1C(F)(F)F` [Example 176, (S)-2-methoxy-N-((4-(trifluoromethyl)phenyl)(3-(trifluoromethyl)pyridin-2-yl)methyl)benzamide], the half-maximal inhibitory concentration (IC50) turned out to be 21.9 nM. Turning to `O=C(N[C@@H](c1ccc(C(F)(F)F)cc1)c1ncccc1C(F)(F)F)c1ccc(I)cc1` [Example 122, (S)-4-iodo-N-((4-(trifluoromethyl)phenyl)(3-(trifluoromethyl)pyridin-2-yl)methyl)benzamide], the IC50 turned out to be 107 nM. Take `CNC(=O)c1ccc(C(=O)N[C@@H](c2ccc(C(F)(F)F)cc2)c2ncccc2F)nc1` [Example 273, (S)—N^2-((3-Fluoropyridin-2-yl)(4-(trifluoromethyl)phenyl)-methyl)-N^5-methylpyridine-2,5-dicarboxamide 2,2,2-trifluoroacetate]: the half-maximal inhibitory concentration (IC50) is 16.1 nM.

`O=C(NC(c1ccc(C(F)(F)F)cc1)c1ncccc1F)c1cccc(F)c1` (stereo not drawn) [Example 209, 3-fluoro-N-((3-fluoropyridin-2-yl)(4-(trifluoromethyl)phenyl)methyl)benzamide]: the IC50 came out at 105 nM. Under `O=C(N[C@@H](c1ccc(C(F)(F)F)cc1)c1ccccn1)c1ccc2c(c1)NCCC2` [Example 276, (S)—N-(Pyridin-2-yl(4-(trifluoromethyl)phenyl)methyl)-1,2,3,4-tetrahydroquinoline-7-carboxamide] stands 177 nM; under `O=C(N[C@@H](c1ccc(OC(F)(F)F)c(F)c1)c1ncccc1F)c1cc2n(n1)CCCO2` [Example 355, (S)-N-((3-fluoro-4-(trifluoromethoxy)phenyl)(3-fluoropyridin-2-yl)methyl)-6,7-dihydro-5H-pyrazolo[5,1-b][1,3]oxazine-2-carboxamide], 38.5 nM; under `O=C(N[C@@H](c1ccc(C(F)(F)F)cc1)c1ncccc1C(F)(F)F)c1ccc2ncsc2c1` [Example 239, (S)-N-((4-(trifluoromethyl)phenyl)(3-(trifluoromethyl)pyridin-2-yl)methyl)benzo[d]thiazole-6-carboxamide], 16 nM. Under `O=C(N[C@@H](c1ccc(C(F)(F)F)cc1)c1ncccc1F)c1ccc2nccn2c1` [Example 253, (S)-N-((3-fluoropyridin-2-yl)(4-(trifluoromethyl)phenyl)methyl)imidazo[1,2-a]pyridine-6-carboxamide 2,2,2-trifluoroacetate] stands 11.4 nM; under `O=C(O)c1cccc(C(=O)N[C@@H](c2ccc(C(F)(F)F)cc2)c2ncccc2F)c1` [Example 207, (S)-3-(((3-fluoropyridin-2-yl)(4-(trifluoromethyl)phenyl)methyl)carbamoyl)benzoic acid], 121 nM. Under `Cc1cccnc1[C@@H](NC(=O)c1ccc(=O)n(C)c1)c1ccc(C(F)(F)F)cc1` [Example 83, (S)-1-methyl-N-((3-methylpyridin-2-yl)(4-(trifluoromethyl)phenyl)methyl)-6-oxo-1,6-dihydropyridine-3-carboxamide 2,2,2-trifluoroacetate] stands 39.2 nM.
